The supplement of paper PMC12490022
± gives the uncertainty stated by the source.

System: ozone
Experiment: apparent second-order rate constant for reaction with ozone (kapp,O3) (M-1 s-1); higher = faster oxidation by ozone
Details: pH 7; temperature: 22 C; OH radical scavenger: tBuOH 80 mM; phosphate 4 mM
Outline: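 The apparent second-order rate constant for reaction with ozone is a mean (± SD) from multicompound competition kinetics across qualifying competitors. Mixtures of target and competitors, each at 10 μg L–1 before ozone addition, were prepared in 4 mM phosphate buffer at pH 7 with 80 mM tert-butanol and dosed with ozone solution at compound:O3 molar ratios of 0.0025–100 and 22 ± 1 °C, in triplicate on three days. HPLC-HRMS/MS peak-area abatement in the 10–90% range was regressed against competitors of known constant, and a competitor qualified only with ≥10 points, R2 >0.9 and a slope of 0.1–10.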

SMILES	apparent second-order rate constant
CNCC(O)c1cccc(O)c1 (configuration not stated) [Phenylephrine]	158000 ± 7000
CC12C=CC(=O)C=C1CCC1C2C(O)CC2(C)C1CCC2(O)C(=O)CO (configuration not stated) [Prednisolone]	104 ± 5.6
CC12C=CC(=O)C=C1CCC1C2C(=O)CC2(C)C1CCC2(O)C(=O)CO (configuration not stated) [Prednisone]	324 ± 15
CC(C)CC(CN)CC(=O)O (configuration not stated) [Pregabalin]	15.6 ± 1.1
CCC1(c2ccccc2)C(=O)NCNC1=O [Primidone]	2.4 ± 0.3
CC(C)NCC(O)COc1cccc2ccccc12 (configuration not stated) [Propanolol]	174000 ± 16000
CNC(C)C(O)c1ccccc1 (configuration not stated) [Pseudoephedrine]	1370 ± 110
CNC(=C[N+](=O)[O-])NCCSCc1ccc(C[N+](C)(C)[O-])o1 [Ranitidine-N-oxide]	3.45e+06 ± 340000
CNC(=C[N+](=O)[O-])NCC[S+]([O-])Cc1ccc(CN(C)C)o1 (configuration not stated) [Ranitidine-S-oxide]	1.75e+06 ± 70000
CNC(=C[N+](=O)[O-])NCCSCc1ccc(CN(C)C)o1 [Ranitidine]	6.4e+06 ± 500000
O=C(O)C(c1ccccc1)C1CCCCN1 (configuration not stated) [Ritalinic acid]	139 ± 7.2
CC(C)c1nc(N(C)S(C)(=O)=O)nc(-c2ccc(F)cc2)c1C=CC(O)CC(O)CC(=O)O (configuration not stated) [Rosuvastatin]	3250 ± 260
C[C@H](C[C@@H](Cc1ccc(-c2ccccc2)cc1)NC(=O)CCC(=O)O)C(=O)O [Sacubitrilat (LBQ657)]	16.7 ± 1.8
O=C(O)CCC(=O)O [Succinic acid]	< 0.401
Nc1ccc(S(=O)(=O)Nc2ncccn2)cc1 [Sulfadiazine]	1.23e+06 ± 110000
COc1cc(NS(=O)(=O)c2ccc(N)cc2)nc(OC)n1 [Sulfadimethoxine]	1.53e+06 ± 100000

SMILES	apparent second-order rate constant
Cc1cc(C)nc(NS(=O)(=O)c2ccc(N)cc2)n1 [Sulfamethazine]	933000 ± 81000
Cc1cc(N(C2OC(C(=O)O)C(O)C(O)C2O)S(=O)(=O)c2ccc(N)cc2)no1 (configuration not stated) [Sulfamethoxazole-N1-glucuronide]	37000 ± 8000
Nc1ccc(S(=O)(=O)Nc2ccccn2)cc1 [Sulfapyridine]	537000 ± 180000
Nc1ccc(S(=O)(=O)Nc2nccs2)cc1 [Sulfathiazole]	9.8e+06 ± 700000
CC[N+]1([O-])CCCC1CNC(=O)c1cc(S(N)(=O)=O)ccc1OC (configuration not stated) [Sulpiride-N-oxide]	41 ± 5
CCN1CCCC1CNC(=O)c1cc(S(N)(=O)=O)ccc1OC (configuration not stated) [Sulpiride]	1.75e+06 ± 70000
CCC(c1cccc(OS(=O)(=O)O)c1)C(C)CN(C)C (configuration not stated) [Tapentadol-O-sulfate]	1530 ± 150
CCC(c1cccc(O)c1)C(C)CN(C)C (configuration not stated) [Tapentadol]	1.83e+06 ± 140000
CCCc1nc2c(C)cc(-c3nc4ccccc4n3C)cc2n1Cc1ccc(-c2ccccc2C(=O)OC2OC(C(=O)O)C(O)C(O)C2O)cc1 (configuration not stated) [Telmisartan-O-acyl-glucuronide]	111 ± 5
CCCc1nc2c(C)cc(-c3nc4ccccc4n3C)cc2n1Cc1ccc(-c2ccccc2C(=O)O)cc1 [Telmisartan]	120 ± 6.1
Cn1cnc2c1c(=O)[nH]c(=O)n2C [Theobromine]	1200 ± 65
Cn1c(=O)c2[nH]cnc2n(C)c1=O [Theophylline]	885000 ± 78000
Cc1ccc(C(=O)C(C)CN2CCCCC2)cc1 (configuration not stated) [Tolperisone]	17400 ± 1700
CC(C)NC(=O)NS(=O)(=O)c1cnccc1Nc1cccc(C(=O)O)c1 [Torasemide carboxylic acid]	214 ± 10
Cc1cccc(Nc2ccncc2S(=O)(=O)NC(=O)NC(C)C)c1 [Torasemide]	2990 ± 260
O=c1n(CCCN2CCN(c3cccc(Cl)c3)CC2)nc2ccccn12 [Trazodone]	1.31e+07 ± 1.6e+06
